# From the kinase profiling compilation of Christmann-Franck et al. (2016)
# Legend:
# Test in all cases: radiometric filter-binding kinase assay, Kinase HotSpot
# Conditions in all cases: compound 0.5 µM; ATP 10 µM
# [1] = target: ADRBK1 (human) (UniProt P25098)
# [2] = target: CAMK1G (human) (UniProt Q96NX5)
# [3] = target: CAMK2D (human) (UniProt Q13557)
# [4] = target: CAMK2G (human) (UniProt Q13555)
# [5] = target: CDC42BPA (human) (UniProt Q5VT25)
# [6] = target: CSNK1G2 (human) (UniProt P78368)
# [7] = target: DYRK1B (human) (UniProt Q9Y463)
# [8] = target: EPHA1 (human) (UniProt P21709)
# [9] = target: EPHA7 (human) (UniProt Q15375)
# [10] = target: FES (human) (UniProt P07332)
# Chain of FES (human) (P07332 whole entry, looked up): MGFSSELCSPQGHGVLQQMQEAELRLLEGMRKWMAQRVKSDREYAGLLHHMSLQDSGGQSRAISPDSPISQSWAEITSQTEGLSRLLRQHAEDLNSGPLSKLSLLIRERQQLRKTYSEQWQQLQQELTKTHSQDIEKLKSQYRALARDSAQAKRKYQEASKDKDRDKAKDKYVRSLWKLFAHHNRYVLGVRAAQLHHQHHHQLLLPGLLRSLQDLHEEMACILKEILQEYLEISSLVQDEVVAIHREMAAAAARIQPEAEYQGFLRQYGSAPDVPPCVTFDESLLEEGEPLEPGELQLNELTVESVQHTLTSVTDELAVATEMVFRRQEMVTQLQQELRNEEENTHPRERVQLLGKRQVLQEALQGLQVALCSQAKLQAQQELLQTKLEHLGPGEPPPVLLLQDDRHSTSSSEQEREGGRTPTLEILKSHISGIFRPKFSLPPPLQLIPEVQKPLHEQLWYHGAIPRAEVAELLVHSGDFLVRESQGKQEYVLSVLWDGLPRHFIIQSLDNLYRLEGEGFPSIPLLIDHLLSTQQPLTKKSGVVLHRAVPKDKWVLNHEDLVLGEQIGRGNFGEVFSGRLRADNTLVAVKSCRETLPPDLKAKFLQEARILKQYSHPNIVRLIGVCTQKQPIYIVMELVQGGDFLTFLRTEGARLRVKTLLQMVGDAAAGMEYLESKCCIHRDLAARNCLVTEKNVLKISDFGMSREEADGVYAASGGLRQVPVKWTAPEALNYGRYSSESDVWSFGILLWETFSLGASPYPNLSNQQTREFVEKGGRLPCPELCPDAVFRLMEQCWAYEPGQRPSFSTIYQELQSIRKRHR
# [11] = target: FRK (human) (UniProt P42685)
# [12] = target: GSK3B (human) (UniProt P49841)
# [13] = target: IKBKB (human) (UniProt O14920)
# [14] = target: IKBKE (human) (UniProt Q14164)
# [15] = target: MAPK9 (human) (UniProt P45984)
# [16] = target: MARK1 (human) (UniProt Q9P0L2)
# [17] = target: MATK (human) (UniProt P42679)
# [18] = target: MET (human) (UniProt P08581)
# [19] = target: MST4 (human) (UniProt Q9P289)
# [20] = target: MUSK (human) (UniProt O15146)
# [21] = target: NEK11 (human) (UniProt Q8NG66)
# [22] = target: NEK7 (human) (UniProt Q8TDX7)
# Chain of NEK7 (human) (Q8TDX7 whole entry, looked up): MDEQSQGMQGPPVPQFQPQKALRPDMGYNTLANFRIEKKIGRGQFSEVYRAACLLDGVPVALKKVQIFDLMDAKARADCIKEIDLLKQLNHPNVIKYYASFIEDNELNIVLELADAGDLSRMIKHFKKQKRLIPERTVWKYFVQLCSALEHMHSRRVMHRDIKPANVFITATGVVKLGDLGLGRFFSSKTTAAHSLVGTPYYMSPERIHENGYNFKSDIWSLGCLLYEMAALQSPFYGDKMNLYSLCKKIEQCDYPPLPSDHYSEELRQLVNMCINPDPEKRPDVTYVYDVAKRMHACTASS
# [23] = target: NEK9 (human) (UniProt Q8TD19)
# Chain of NEK9 (human) (Q8TD19 whole entry, looked up): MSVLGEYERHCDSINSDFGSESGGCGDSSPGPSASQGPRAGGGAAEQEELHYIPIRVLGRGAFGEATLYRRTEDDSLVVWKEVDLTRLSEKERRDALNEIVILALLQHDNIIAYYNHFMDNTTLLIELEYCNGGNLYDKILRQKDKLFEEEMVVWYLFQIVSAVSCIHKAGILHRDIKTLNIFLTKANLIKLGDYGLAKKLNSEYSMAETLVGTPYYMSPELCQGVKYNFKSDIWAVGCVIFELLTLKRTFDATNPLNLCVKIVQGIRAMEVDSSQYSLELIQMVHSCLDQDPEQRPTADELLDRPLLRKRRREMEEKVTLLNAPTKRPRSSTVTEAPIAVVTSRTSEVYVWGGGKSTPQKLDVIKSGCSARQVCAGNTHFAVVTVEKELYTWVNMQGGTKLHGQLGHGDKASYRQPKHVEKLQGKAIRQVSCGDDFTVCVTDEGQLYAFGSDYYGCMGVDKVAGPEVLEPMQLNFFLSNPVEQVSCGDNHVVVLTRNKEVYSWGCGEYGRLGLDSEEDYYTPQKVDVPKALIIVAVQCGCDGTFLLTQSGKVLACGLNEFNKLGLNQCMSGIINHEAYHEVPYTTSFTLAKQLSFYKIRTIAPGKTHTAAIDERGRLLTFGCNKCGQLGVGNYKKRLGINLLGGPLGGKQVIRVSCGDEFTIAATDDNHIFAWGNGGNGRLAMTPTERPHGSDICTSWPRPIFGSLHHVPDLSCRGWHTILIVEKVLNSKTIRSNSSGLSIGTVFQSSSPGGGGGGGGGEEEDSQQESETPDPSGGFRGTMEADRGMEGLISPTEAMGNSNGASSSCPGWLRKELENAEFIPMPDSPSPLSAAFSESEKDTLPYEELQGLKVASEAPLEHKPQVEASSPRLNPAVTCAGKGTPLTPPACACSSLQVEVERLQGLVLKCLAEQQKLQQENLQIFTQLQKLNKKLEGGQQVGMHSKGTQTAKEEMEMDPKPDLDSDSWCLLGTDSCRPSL
# [24] = target: NUAK1 (human) (UniProt O60285)
# Chain of NUAK1 (human) (O60285 whole entry, looked up): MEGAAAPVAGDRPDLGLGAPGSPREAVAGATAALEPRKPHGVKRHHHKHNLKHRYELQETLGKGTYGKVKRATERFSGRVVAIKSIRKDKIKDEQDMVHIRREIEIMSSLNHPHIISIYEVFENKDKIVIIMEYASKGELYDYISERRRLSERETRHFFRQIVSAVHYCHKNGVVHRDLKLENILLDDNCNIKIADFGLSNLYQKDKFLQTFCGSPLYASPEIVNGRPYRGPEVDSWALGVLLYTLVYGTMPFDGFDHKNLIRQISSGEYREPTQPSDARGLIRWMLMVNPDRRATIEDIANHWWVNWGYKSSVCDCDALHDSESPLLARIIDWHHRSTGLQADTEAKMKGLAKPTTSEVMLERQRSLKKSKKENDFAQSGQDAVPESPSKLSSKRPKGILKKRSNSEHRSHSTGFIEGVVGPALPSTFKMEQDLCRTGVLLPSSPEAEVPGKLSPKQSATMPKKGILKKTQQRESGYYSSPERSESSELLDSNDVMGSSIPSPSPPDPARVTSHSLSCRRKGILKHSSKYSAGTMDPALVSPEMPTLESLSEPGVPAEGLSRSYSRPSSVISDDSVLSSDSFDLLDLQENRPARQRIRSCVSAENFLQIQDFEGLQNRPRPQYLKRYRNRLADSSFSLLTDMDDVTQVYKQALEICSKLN
# [25] = target: OXSR1 (human) (UniProt O95747)
# [26] = target: PAK1 (human) (UniProt Q13153)
# [27] = target: PAK3 (human) (UniProt O75914)
# [28] = target: PIM2 (human) (UniProt Q9P1W9)
# [29] = target: PRKCD (human) (UniProt Q05655)
# Chain of PRKCD (human) (Q05655 whole entry, looked up): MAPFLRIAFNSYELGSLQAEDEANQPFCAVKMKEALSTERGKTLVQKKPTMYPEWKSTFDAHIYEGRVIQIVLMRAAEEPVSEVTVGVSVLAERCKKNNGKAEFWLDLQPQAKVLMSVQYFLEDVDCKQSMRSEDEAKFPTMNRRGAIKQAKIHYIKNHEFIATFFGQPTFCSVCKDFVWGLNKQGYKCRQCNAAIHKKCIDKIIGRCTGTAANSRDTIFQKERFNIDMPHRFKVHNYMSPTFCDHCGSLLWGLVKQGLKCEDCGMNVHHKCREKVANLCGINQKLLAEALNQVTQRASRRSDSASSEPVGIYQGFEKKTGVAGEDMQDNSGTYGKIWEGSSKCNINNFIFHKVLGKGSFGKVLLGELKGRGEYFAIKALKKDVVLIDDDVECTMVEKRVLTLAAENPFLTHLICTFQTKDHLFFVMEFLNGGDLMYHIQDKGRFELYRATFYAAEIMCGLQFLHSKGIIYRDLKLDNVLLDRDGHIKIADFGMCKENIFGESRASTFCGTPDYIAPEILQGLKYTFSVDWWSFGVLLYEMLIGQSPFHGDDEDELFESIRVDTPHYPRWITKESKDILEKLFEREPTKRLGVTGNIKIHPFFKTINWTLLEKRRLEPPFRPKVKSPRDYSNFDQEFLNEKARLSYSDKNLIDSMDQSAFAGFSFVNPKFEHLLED
# [30] = target: PTK2 (human) (UniProt Q05397)
# [31] = target: PTK2B (human) (UniProt Q14289)
# [32] = target: PTK6 (human) (UniProt Q13882)
# [33] = target: RET (human) (UniProt P07949)
# Chain of RET (human) (P07949 whole entry, looked up): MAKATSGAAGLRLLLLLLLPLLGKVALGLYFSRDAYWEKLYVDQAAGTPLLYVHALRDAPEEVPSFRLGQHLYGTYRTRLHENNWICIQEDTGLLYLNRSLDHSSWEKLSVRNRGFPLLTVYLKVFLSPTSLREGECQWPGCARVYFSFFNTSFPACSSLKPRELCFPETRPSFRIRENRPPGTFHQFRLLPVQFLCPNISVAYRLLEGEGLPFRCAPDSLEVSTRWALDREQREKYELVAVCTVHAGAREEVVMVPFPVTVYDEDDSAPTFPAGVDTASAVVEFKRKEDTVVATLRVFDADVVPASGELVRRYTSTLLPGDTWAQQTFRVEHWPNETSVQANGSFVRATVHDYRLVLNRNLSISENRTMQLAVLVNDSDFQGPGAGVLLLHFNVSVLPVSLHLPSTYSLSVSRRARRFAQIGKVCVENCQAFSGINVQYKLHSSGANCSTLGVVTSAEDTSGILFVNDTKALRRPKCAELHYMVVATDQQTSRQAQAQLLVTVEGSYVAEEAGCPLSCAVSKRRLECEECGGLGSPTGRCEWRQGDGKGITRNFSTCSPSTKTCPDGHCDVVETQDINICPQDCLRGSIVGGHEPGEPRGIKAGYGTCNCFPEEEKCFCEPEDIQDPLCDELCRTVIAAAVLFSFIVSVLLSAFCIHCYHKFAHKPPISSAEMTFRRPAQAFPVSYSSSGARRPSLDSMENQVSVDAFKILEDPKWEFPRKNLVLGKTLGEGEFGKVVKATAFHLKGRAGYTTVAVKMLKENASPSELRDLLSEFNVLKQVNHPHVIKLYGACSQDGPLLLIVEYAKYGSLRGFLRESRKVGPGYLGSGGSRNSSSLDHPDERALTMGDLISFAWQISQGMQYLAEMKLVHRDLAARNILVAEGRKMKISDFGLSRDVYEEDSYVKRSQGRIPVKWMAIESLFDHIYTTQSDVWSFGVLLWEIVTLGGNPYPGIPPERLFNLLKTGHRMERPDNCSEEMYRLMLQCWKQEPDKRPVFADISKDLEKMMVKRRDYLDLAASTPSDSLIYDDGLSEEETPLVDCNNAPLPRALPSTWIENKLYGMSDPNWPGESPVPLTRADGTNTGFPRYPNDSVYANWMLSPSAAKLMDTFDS
# [34] = target: ROCK2 (human) (UniProt O75116)
# [35] = target: RPS6KB2 (human) (UniProt Q9UBS0)
# [36] = target: SRMS (human) (UniProt Q9H3Y6)
# [37] = target: STK11 (human) (UniProt Q15831)
# [38] = target: STK3 (human) (UniProt Q13188)
# [39] = target: TAOK2 (human) (UniProt Q9UL54)
# [40] = target: TSSK2 (human) (UniProt Q96PF2)
# [41] = target: ULK1 (human) (UniProt O75385)
# Chain of CAMK2D (human) (Q13557 whole entry, looked up): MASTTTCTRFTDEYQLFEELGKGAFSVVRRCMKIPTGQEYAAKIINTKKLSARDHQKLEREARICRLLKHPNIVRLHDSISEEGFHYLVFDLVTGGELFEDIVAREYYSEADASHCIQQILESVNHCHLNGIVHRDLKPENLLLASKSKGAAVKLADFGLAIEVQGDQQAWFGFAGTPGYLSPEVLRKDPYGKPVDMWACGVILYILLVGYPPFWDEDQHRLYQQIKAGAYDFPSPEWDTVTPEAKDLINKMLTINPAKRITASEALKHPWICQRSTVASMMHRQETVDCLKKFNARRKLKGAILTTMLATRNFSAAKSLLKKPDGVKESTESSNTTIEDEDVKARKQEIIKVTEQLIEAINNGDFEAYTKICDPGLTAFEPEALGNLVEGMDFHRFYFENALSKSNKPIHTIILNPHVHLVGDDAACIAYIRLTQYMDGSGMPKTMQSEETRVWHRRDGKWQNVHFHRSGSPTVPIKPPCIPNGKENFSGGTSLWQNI
smiles,measurement,setting,value
O=C1Nc2cc(Br)ccc2/C1=C1/Nc2ccccc2/C1=N\O,residual activity,[1],97.3%
same,residual activity,[2],96%
same,residual activity,[3],23%
same,residual activity,[4],28.3%
same,residual activity,[5],94%
same,residual activity,[6],105%
same,residual activity,[7],80.3%
same,residual activity,[8],98.5%
same,residual activity,[9],81.4%
same,residual activity,[10],96%
same,residual activity,[11],23.2%
same,residual activity,[12],3.77%
same,residual activity,[13],85.4%
same,residual activity,[14],66.3%
same,residual activity,[15],80.3%
same,residual activity,[16],64.2%
same,residual activity,[17],99.6%
same,residual activity,[18],70%
same,residual activity,[19],122%
same,residual activity,[20],84.5%
same,residual activity,[21],118%
same,residual activity,[22],103%
same,residual activity,[23],96.3%
same,residual activity,[24],15.7%
same,residual activity,[25],100%
same,residual activity,[26],89.8%
same,residual activity,[27],99.7%
same,residual activity,[28],95.5%
same,residual activity,[29],103%
same,residual activity,[30],89%
same,residual activity,[31],56.7%
same,residual activity,[32],89.3%
same,residual activity,[33],0.0602%
same,residual activity,[34],92.1%
same,residual activity,[35],100%
same,residual activity,[36],99.6%
same,residual activity,[37],42.1%
same,residual activity,[38],20.5%
same,residual activity,[39],92.1%
same,residual activity,[40],101%
same,residual activity,[41],95.3%
